Patent US20220153746A1, “NITROGEN OXIDE-DONATING PDE-5 AND/OR PDE-6 INHIBITOR COMPOUNDS, AND USES THEREOF” (ILDONG PHARMACEUTICAL CO., LTD., priority 2020, published 2022)

Each compound was assayed against human PDE-5A1 (Homo sapiens, UniProt O76074) (assay: Human PDE-5A1 inhibition assay (fluorescence polarization, FAM-cGMP)). Conditions: read-out: IC50 (μM) PDE5A1.
Format: biochemical

IC50, < 0.01 µM:
CCCc1nc(C)c2c(=O)[nH]c(-c3cc(S(=O)(=O)N4CC(O)C4)ccc3OCC)nn12 [Compound 41, 2-(2-ethoxy-5-((3-hydroxyazetidin-1-yl)sulfonyl)phenyl)-5-methyl-7-propylimidazo[5,1-f][1,2,4]triazin-4(3H)-one]
CCCc1nc(C)c2c(=O)[nH]c(-c3cc(S(=O)(=O)N4CC(CO)C4)ccc3OCC)nn12 [Compound 42, 2-(2-ethoxy-5-((3-(hydroxymethyl)azetidin-1-yl)sulfonyl)phenyl)-5-methyl-7-propylimidazo[5,1-f][1,2,4]triazin-4(3H)-one]
CCCc1nc(C)c2c(=O)[nH]c(-c3cc(S(=O)(=O)N4CC(CCO)C4)ccc3OCC)nn12 [Compound 43, 2-(2-ethoxy-5-((3-(2-hydroxyethyl)azetidin-1-yl)sulfonyl)phenyl)-5-methyl-7-propylimidazo[5,1-f][1,2,4]triazin-4(3H)-one]
CCCc1nc(C)c2c(=O)[nH]c(-c3cc(S(=O)(=O)N4CC(CCCO)C4)ccc3OCC)nn12 [Compound 44, 2-(2-ethoxy-5-((3-(3-hydroxypropyl)azetidin-1-yl)sulfonyl)phenyl)-5-methyl-7-propylimidazo[5,1-f][1,2,4]triazin-4(3H)-one]
CCCc1nc(C)c2c(=O)[nH]c(-c3cc(S(=O)(=O)N4CC(CN)C4)ccc3OCC)nn12 [Compound 45]
CCCc1nc(C)c2c(=O)[nH]c(-c3cc(S(=O)(=O)NC4CN(CCO)C4)ccc3OCC)nn12 [Compound 46, 4-ethoxy-N-(1-(2-hydroxyethyl)azetidin-3-yl)-3-(5-methyl-4-oxo-7-propyl-3,4-dihydroimidazo[5,1-f][1,2,4]triazin-2-yl)benzenesulfonamide]
CCCc1nc(C)c2c(=O)[nH]c(-c3cc(S(=O)(=O)NC4CN(CCCO)C4)ccc3OCC)nn12 [Compound 47, 4-ethoxy-N-(1-(3-hydroxypropyl)azetidin-3-yl)-3-(5-methyl-4-oxo-7-propyl-3,4-dihydroimidazo[5,1-f][1,2,4]triazin-2-yl)benzenesulfonamide]
CCCc1nc(C)c2c(=O)[nH]c(-c3cc(S(=O)(=O)N4CC(NCCO)C4)ccc3OCC)nn12 [Compound 49, 2-(2-ethoxy-5-((3-((2-hydroxyethyl)amino)azetidin-1-yl)sulfonyl)phenyl)-5-methyl-7-propylimidazo[5,1-f][1,2,4]triazin-4(3H)-one]
CCCc1nc(C)c2c(=O)[nH]c(-c3cc(S(=O)(=O)N4CC(NCCCO)C4)ccc3OCC)nn12 [Compound 50, 2-(2-ethoxy-5-((3-((3-hydroxypropyl)amino)azetidin-1-yl)sulfonyl)phenyl)-5-methyl-7-propylimidazo[5,1-f][1,2,4]triazin-4(3H)-one]
CCCc1nc(C)c2c(=O)[nH]c(-c3cc(S(=O)(=O)N4CC(N(C)CCO)C4)ccc3OCC)nn12 [Compound 52, 2-(2-ethoxy-5-((3-((2-hydroxyethyl)(methyl)amino)azetidin-1-yl)sulfonyl)phenyl)-5-methyl-7-propylimidazo[5,1-f][1,2,4]triazin-4(3H)-one]
CCCc1nc(C)c2c(=O)[nH]c(-c3cc(S(=O)(=O)N4CC(N(C)CCCO)C4)ccc3OCC)nn12 [Compound 53, 2-(2-ethoxy-5-((3-((3-hydroxypropyl)(methyl)amino)azetidin-1-yl)sulfonyl)phenyl)-5-methyl-7-propylimidazo[5,1-f][1,2,4]triazin-4(3H)-one]
CCCc1nc(C)c2c(=O)[nH]c(-c3cc(S(=O)(=O)N4CC(O[N+](=O)[O-])C4)ccc3OCC)nn12 [Compound 55, 1-((4-ethoxy-3-(5-methyl-4-oxo-7-propyl-3,4-dihydroimidazo[5,1-f][1,2,4]triazin-2-yl)phenyl)sulfonyl)azetidin-3-yl nitrate]
CCCc1nc(C)c2c(=O)[nH]c(-c3cc(S(=O)(=O)N4CC(CO[N+](=O)[O-])C4)ccc3OCC)nn12 [Compound 56, (1-((4-ethoxy-3-(5-methyl-4-oxo-7-propyl-3,4-dihydroimidazo[5,1-f][1,2,4]triazin-2-yl)phenyl)sulfonyl)azetidin-3-yl)methyl nitrate]
CCCc1nc(C)c2c(=O)[nH]c(-c3cc(S(=O)(=O)N4CC(CCO[N+](=O)[O-])C4)ccc3OCC)nn12 [Compound 57, 2-(1-((4-ethoxy-3-(5-methyl-4-oxo-7-propyl-3,4-dihydroimidazo[5,1-f][1,2,4]triazin-2-yl)phenyl)sulfonyl)azetidin-3-yl) ethyl nitrate]
CCCc1nc(C)c2c(=O)[nH]c(-c3cc(S(=O)(=O)N4CC(CCCO[N+](=O)[O-])C4)ccc3OCC)nn12 [Compound 58, 3-(1-((4-ethoxy-3-(5-methyl-4-oxo-7-propyl-3,4-dihydroimidazo[5,1-f][1,2,4]triazin-2-yl)phenyl)sulfonyl)azetidin-3-yl) propyl nitrate]
CCCc1nc(C)c2c(=O)[nH]c(-c3cc(S(=O)(=O)NC4CN(CCO[N+](=O)[O-])C4)ccc3OCC)nn12 [Compound 59, 2-(3-((4-ethoxy-3-(5-methyl-4-oxo-7-propyl-3,4-dihydroimidazo[5,1-f][1,2,4]triazin-2-yl)phenyl)sulfonamido)azetidin-1-yl)ethyl nitrate]
CCCc1nc(C)c2c(=O)[nH]c(-c3cc(S(=O)(=O)NC4CN(CCCO[N+](=O)[O-])C4)ccc3OCC)nn12 [Compound 60, 3-(3-((4-ethoxy-3-(5-methyl-4-oxo-7-propyl-3,4-dihydroimidazo[5,1-f][1,2,4]triazin-2-yl)phenyl)sulfonamido)azetidin-1-yl)propyl nitrate]
CCCc1nc(C)c2c(=O)[nH]c(-c3cc(S(=O)(=O)N4CC(NCCO[N+](=O)[O-])C4)ccc3OCC)nn12 [Compound 61, 2-((1-((4-ethoxy-3-(5-methyl-4-oxo-7-propyl-3,4-dihydroimidazo[5,1-f][1,2,4]triazin-2-yl)phenyl)sulfonyl)azetidin-3-yl)amino)ethyl nitrate]
CCCc1nc(C)c2c(=O)[nH]c(-c3cc(S(=O)(=O)N4CC(NCCCO[N+](=O)[O-])C4)ccc3OCC)nn12 [Compound 62, 3-((1-((4-ethoxy-3-(5-methyl-4-oxo-7-propyl-3,4-dihydroimidazo[5,1-f][1,2,4]triazin-2-yl)phenyl)sulfonyl)azetidin-3-yl)amino)propyl nitrate]
CCCc1nc(C)c2c(=O)[nH]c(-c3cc(S(=O)(=O)N4CC(N(C)CCO[N+](=O)[O-])C4)ccc3OCC)nn12 [Compound 63, 2-((1-((4-ethoxy-3-(5-methyl-4-oxo-7-propyl-3,4-dihydroimidazo[5,1-f][1,2,4]triazin-2-yl)phenyl)sulfonyl)azetidin-3-yl)(methyl)amino)ethyl nitrate]
CCCc1nc(C)c2c(=O)[nH]c(-c3cc(S(=O)(=O)N4CC(N(C)CCCO[N+](=O)[O-])C4)ccc3OCC)nn12 [Compound 64, 3-((1-((4-ethoxy-3-(5-methyl-4-oxo-7-propyl-3,4-dihydroimidazo[5,1-f][1,2,4]triazin-2-yl)phenyl)sulfonyl)azetidin-3-yl)(methyl)amino)propyl nitrate]
